# In patent US20070203141A1 (BOEHRINGER INGELHEIM PHARMACEUTICALS, INC., priority 2001, published 2007):
# Several values for one entry are separate records, joined by “and”; a condition that tells them apart may be missing. Identical values can stand only once.
# What was measured:
# [1] = Phase 1 single dose trial, pharmacokinetics; assay type: in vivo; settings: human, 4 mg single dose
# Procedure: (§1) Thus, 4 mg would be efficacious in inhibiting TNFα production.
# TNFα production [2] = test: Cynomolgus monkey endotoxin model, duration of action, PO chewable tablets 12 hours prior to LPS; assay type: in vivo; settings: for Inhibition of TNFα production: vs placebo; for Peak plasma level: cynomolgus monkey
# Text: (§2) As a surrogate model for man, we developed an endotoxin model in the cynomolgus monkey to examine the effect of p38 MAPK inhibitors on modulating TNFα production.
# [3] = Twice daily for 14 days Phase I study, pharmacokinetics; assay type: in vivo; settings: human
# Procedure: (§3) This study was a Phase I, randomized, double-blind, placebo-controlled, multiple-dose trial to investigate the safety and pharmacokinetics of 15 or 30 mg of an orally available p38MAPK inhibitor administered twice daily compared to placebo for 14 days. Subjects were 49 healthy males, 16 per treatment group (one subject on placebo was discontinued). […] Based on preliminary analysis of this study, 9 of 48 subjects had transaminase values above the upper limit of normal (UNL), 2 in the placebo, 3 in the 15 mg dose group and 4 in 30 mg dose group. Three subjects experienced ALT rises 2-3 fold greater than UNL, one in each dose group. […] There were no relevant changes in other laboratory studies, EKGs or physical examinations.
# [4] = system: TNFα release from LPS stimulated human PBMC; test: TNFα release from LPS stimulated human PBMC; assay type: cell-based
# [5] = system: TNFα release, human whole blood; test: TNFα release from LPS stimulated human whole blood; assay type: cell-based
# plasma TNFα production = test: Cynomolgus monkey endotoxin model, IV dosing just prior to LPS challenge; assay type: in vivo; settings: vs vehicle
# Text: as §2
# [6] = system: TNFα release, monkey whole blood; test: TNFα release from LPS stimulated monkey whole blood; assay type: cell-based
# Text: as §2
# TNFα [7] = test: Single dose rising trial (U00-1627), ex vivo TNFα inhibition; assay type: in vivo, human; settings: single dose rising trial U00-1627
# Procedure: as §1
# This discrepancy between in vivo and ex vivo and in vivo and in vitro was also observed in cynomolgus monkeys (U99-3145).
# [8] = Twice daily for 14 days Phase I study, safety; assay type: in vivo, human; settings: for Subjects with transaminase values above the upper limit of normal: preliminary analysis, placebo 2
# Procedure: as §3
# TNFα [9] = test: Once daily for 7 days study, ex vivo LPS induced production of TNFα in human whole blood; settings: any of the doses used (20, 50, 150 mg once daily for 7 days)
# Procedure: (§4) This was a randomized, double-blind, placebo-controlled (2:6 ratio per dose group), multiple dose (20, 50 and 150 mg) study to assess pharmacokinetics, pharmacodynamics, safety and tolerability using a tablet formulation administered once a day for one week. Safety was determined by adverse events, laboratory tests, and physical examination. Kinetics were assessed by measuring plasma levels of drug and pharmacodynamics was assessed ex vivo by the effects of LPS induced production of TNFα, and the TNFα or fMLP induced activation state of PMN in human whole blood as measured by the ratio of Mac-1/Lselectin cell surface expression. Twenty-four healthy male volunteers (mean age 30 years, mean weight 76 kg) were studied. […] Two subjects receiving the 150 mg dose developed acne. There were no clinically significant changes in laboratory assessments except for a dose related, reversible rise in AST and ALT. […] This transaminase increase was not associated with changes in other liver function tests, nor was it associated with any liver related signs or symptoms. […] Steady-state was attained within 2 days.
# TNFα production [10] = test: Human endotoxemia trial, LPS-induced TNFα production; assay type: in vivo; settings: for Inhibition of LPS-induced TNFα production: human, vs placebo
# Text: Intravenous administration of endotoxin represents a safe, well-defined model of acute inflammation in humans. It is also an excellent tool to study the mechanisms contributing to inflammatory responses in man in vivo.
# The endotoxin (LPS) was obtained from: Escherichia coli LPS (lot G; United States Pharmacopoeial Convention, Rockville, Md. USA).
# Percent inhibition was obtained by calculating the percent difference between the median peak plasma pharmacodynamic endpoint concentrations of the placebo group and the maximum endpoint concentration achieved by each individual. […] [formula]
# TNFα production [11] = test: Mouse model of LPS-induced TNFα production; assay type: in vivo; settings: dosed orally 30 minutes prior to LPS challenge
# [12] = Once daily for 7 days multiple dose study, pharmacokinetics; assay type: in vivo; settings: human
# Procedure: as §4
# [13] = Once daily for 7 days multiple dose study, safety and tolerability; assay type: in vivo, human
# Procedure: Transaminase levels peaked 2 to 4 days after the end of drug therapy on day 7 with resolution over the next 7 to 14 days.
# as §4
# [14] = system: PMN (neutrophil) activation in human whole blood; test: Once daily for 7 days study, ex vivo TNFα or fMLP induced activation state of PMN (Mac-1/Lselectin ratio); assay type: in vivo
# Procedure: as §4
# [15] = 150 mg once daily for 7 days, all 6 subjects
smiles,measurement,setting,value
Cc1ccc(-n2nc(C(C)(C)C)cc2NC(=O)Nc2ccc(OCCN3CCOCC3)c3ccccc23)cc1 [BIRB 796 BS],Cmax,[1],23.8 ± 5.71 ng/mL
same,Inhibition of TNFα production,"TNFα production [2]; 1 mg/kg PO 12 hours prior to IV LPS, NS",44%
same,Inhibition of TNFα production,"TNFα production [2]; 3 mg/kg PO 12 hours prior to IV LPS, p<0.05",61%
same,Inhibition of TNFα production,"TNFα production [2]; 20 mg/kg PO 12 hours prior to IV LPS, p<0.01",84%
same,Peak plasma level,TNFα production [2]; 1 mg/kg PO chewable tablets,0.003 µM
same,Peak plasma level,TNFα production [2]; 3 mg/kg PO chewable tablets,0.02 µM
same,Peak plasma level,TNFα production [2]; 20 mg/kg PO chewable tablets,1.4 µM
same,AUC0-12 (mean±SD) on day 14,[3]; 15 mg twice daily,334 ± 145 ng·h/mL
same,Cmax (mean±SD) on day 14,[3]; 15 mg twice daily,109 ± 51 ng/mL
same,AUC0-12 (mean±SD) on day 14,[3]; 30 mg twice daily,659 ± 449 ng·h/mL
same,Cmax (mean±SD) on day 14,[3]; 30 mg twice daily,208 ± 109 ng/mL
same,Mean elimination half-life,[3]; 15 or 30 mg twice daily for 14 days,7.3 h
same,IC50,[4],0.021 µM
same,IC50,[5],0.8 µM
same,Inhibition of plasma TNFα production,plasma TNFα production; 0.3 mg/kg IV just prior to LPS 400 ng/kg IV,not significantly inhibited
same,Inhibition of plasma TNFα production,"plasma TNFα production; 1 mg/kg IV just prior to LPS 400 ng/kg IV, p<0.005",85%
same,Inhibition of plasma TNFα production,"plasma TNFα production; 3 mg/kg IV just prior to LPS 400 ng/kg IV, p<0.005",90%
same,IC50,[6],4 µM
same,Ex vivo inhibition of TNFα production,TNFα [7]; 50 mg,no inhibition was observed
same,EC50 calculated from ex-vivo inhibition of TNFα,TNFα [7],1.228 µg/mL
same,Subjects with transaminase values above the upper limit of normal,[8]; 15 mg twice daily group (16 per group),3 subjects
same,Subjects with transaminase values above the upper limit of normal,[8]; 30 mg twice daily group (16 per group),4 subjects
same,Tolerability,[8]; doses up to 30 mg twice daily for two weeks,well tolerated
same,Ex vivo inhibition of TNFα,TNFα [9],No inhibition
same,EC50 for inhibiting TNFα production in vivo,"TNFα production [10]; Emax model, plasma concentration ten minutes prior to LPS challenge",0.02372 µg/mL
same,"Emax (% Inhibition), TNFα","TNFα production [10]; Emax model, pre-LPS challenge plasma concentration vs percent inhibition of peak TNFα",95% and 95.34%
same,Inhibition of LPS-induced TNFα production,TNFα production [10]; 50 mg orally 3 hours prior to LPS challenge,88%
same,Inhibition of LPS-induced TNFα production,TNFα production [10]; 600 mg orally 3 hours prior to LPS challenge,97%
same,"ED50, inhibition of LPS-induced TNFα",TNFα production [11],approximately 10 mg/kg
same,Day 7 mean AUC0-24,[12]; 20 mg once daily,364 ng·h/mL
same,Day 7 mean Cmax,[12]; 20 mg once daily,116 ng/mL
same,Day 7 mean AUC0-24,[12]; 50 mg once daily,1324 ng·h/mL
same,Day 7 mean Cmax,[12]; 50 mg once daily,308 ng/mL
same,Day 7 mean AUC0-24,[12]; 150 mg once daily,5924 ng·h/mL
same,Day 7 mean Cmax,[12]; 150 mg once daily,1108 ng/mL
same,Time to steady-state,[12]; once daily dosing,≤ 2 days
same,Change in γ-GT,[13]; 150 mg daily for seven days,small increase in γ-GT
same,Elevations in AST and ALT,[13]; 150 mg daily for seven days,moderate elevations in AST and ALT
same,Tolerability,[13]; 150 mg for seven days,not considered well tolerated
same,Rise in ALT above the upper limit of normal,[13]; [15],≤ 3.5 fold
same,Rise in AST above the upper limit of normal,[13]; [15],≤ 2 fold
same,Tolerability,[13]; doses up to 50 mg (20 and 50 mg) daily for 7 days,well tolerated
same,Ex vivo neutrophil activation,[14]; 4 hours post dosing,dose dependent inhibition
same,Ex vivo neutrophil activation,"[14]; 24 hours post dosing, various dose levels",mixed pattern of neutrophil inhibition and activation
